Measured values reported in patent US5618931A, “Acetylenes disubstituted with a 5 substituted dihydronaphthyl group and with an aryl or heteroaryl group having retinoid-like biological activity” (Allergan, priority 1994, dated 1997).

System: ornithine decarboxylase (ODC), TPA-induced activity
Assay: not given
Details: background statement on retinoic acid; cited from earlier work
For CC1=C(/C=C/C(C)=C/C=C/C(C)=C/C(=O)O)C(C)(C)CCC1 [Retinoic acid], the “inhibition of TPA induction of ODC activity (in words)” value is listed as “inhibits this induction of ODC activity by TPA”.

System: ornithine decarboxylase (ODC), TPA-induced activity
Assay: ODC assay: inhibition of TPA induction of ornithine decarboxylase
Format: biochemical
Details: concentration of the test compound which causes 80% inhibition in the ODC assay (TPA-induced ODC)
From the text: The retinoic acid-like activity of these compounds is confirmed through the classic measure of retinoic acid activity involving the effects of retinoic acid on ornithine decarboxylase. The original work on the correlation between retinoic acid and decrease in cell proliferation was done by Verma & Boutwell, Cancer Research, 1977, 37,2196-2201. That reference discloses that ornithine decarboxylase (ODC) activity increased precedent to polyamine biosynthesis. It has been established elsewhere that increases in polyamine synthesis can be correlated or associated with cellular proliferation. Thus, if ODC activity could be inhibited, cell hyperproliferation could be modulated. Although all cases for ODC activity increases are unknown, it is known that 12-O-tetradecanoylphorbol-13-acetate (TPA) induces ODC activity. […] Activity of exemplary compounds of the present invention in the above-described ODC assay is disclosed in Table 2 which provides the IC80 concentration for the respective exemplary compound. ("IC80 " is that concentration of the test compound which causes 80% inhibition in the ODC assay. By analogy, IC60, for example, is that concentration of the test compound which causes 60% inhibition in the ODC assay.)
For CCOC(=O)c1ccc(C#Cc2ccc3c(c2)C(OS(=O)(=O)C(F)(F)F)=CCC3(C)C)cc1 [Compound 66, Ethyl 4-[(5-trifluoromethylsulfonyloxy-7,8-dihydro-8,8-dimethylnapth-3-yl)ethynyl]benzoate], the IC80 conc was 17.00 nmols.
CCOC(=O)c1ccc(C#Cc2ccc3c(c2)C(C)(C)CC=C3OS(=O)(=O)C(F)(F)F)cc1 [Compound 87, Ethyl 4-[(5-trifluoromethylsulfonyloxy-7,8-dihydro-8,8-dimethylnaphth-2-yl)ethynyl]benzoate] showed an IC80 conc of 16.80 nmols.
With CCOC(=O)c1ccc(C#Cc2ccc3c(c2)C(Sc2ccccc2)=CCC3(C)C)cc1 [Compound 155, Ethyl 4-[(7,8-dihydro-8,8-dimethyl-5-phenylthionaphth-3yl)ethynyl]benzoate] the IC80 conc was 2.3 nmols.
Compound CCOC(=O)c1ccc(C#Cc2ccc3c(c2)C(C)(C)CC=C3OC(C)=O)cc1 [Compound 105, Ethyl 4-[(5-acetoxy-7,8-dihydro-8,8-dimethylnaphth-2-yl)ethynyl]benzoate] has an IC80 conc of 0.76 nmols.
With CCOC(=O)c1ccc(C#Cc2ccc3c(c2)C(S(=O)(=O)c2ccccc2)=CCC3(C)C)cc1 [Compound 157, Ethyl 4-[(7,8-dihydro-8,8-dimethyl-5-phenylsulfonylnaphth-3-yl)ethynyl]benzoate] the IC80 conc was under 0.1 nmols.
CCOC(=O)c1ccc(C#Cc2ccc3c(c2)C(OC(C)=O)=CCC3(C)C)cc1 [Compound 126, Ethyl 4-[(5-acetoxy-7,8-dihydro-8,8-dimethylnaphth-3-yl)ethynyl]benzoate] showed an IC80 conc of 0.58 nmols.
